From EP0942911B1, “BENZOPYRANOPYRROLE AND BENZOPYRANOPYRIDINE ALPHA-1 ADRENERGIC COMPOUNDS” (Abbott Laboratories, priority 1996, dated 1998) come the findings set out here.

In general, Ki refers to a dissociation constant, usually derived from enzyme kinetics or from competition with a known ligand.

Counter-ions that a name gives are not always drawn.

Holding throughout (assay): biochemical
One experiment deals with T1, α-1a adrenoreceptor (Bos taurus, UniProt P18130).
T1 sequence (P18130 1-466): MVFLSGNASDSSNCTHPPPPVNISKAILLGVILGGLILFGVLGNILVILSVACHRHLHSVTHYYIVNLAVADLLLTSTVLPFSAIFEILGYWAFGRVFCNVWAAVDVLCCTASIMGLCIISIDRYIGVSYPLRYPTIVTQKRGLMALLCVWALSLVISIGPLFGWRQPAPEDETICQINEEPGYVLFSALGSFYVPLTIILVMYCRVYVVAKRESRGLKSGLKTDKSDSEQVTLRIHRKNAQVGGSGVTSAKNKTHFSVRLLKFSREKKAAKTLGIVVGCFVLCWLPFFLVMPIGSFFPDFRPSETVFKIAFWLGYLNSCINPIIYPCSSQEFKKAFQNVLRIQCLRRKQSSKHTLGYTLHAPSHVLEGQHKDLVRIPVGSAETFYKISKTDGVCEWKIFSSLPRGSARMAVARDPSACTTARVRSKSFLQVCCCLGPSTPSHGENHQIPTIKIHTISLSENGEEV
The class given is binding, bovine. The note with it: [3H]-prazosin radioligand; cloned receptor in LTK cell membranes; read-out: Radioligand Binding (Ki, nM) 1a (Bovine). In a few lines: (§1)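 Radioactivity counted by liquid scintillation after radioligand binding to membranes. Receptors: cloned α-1a, α-1b, α-1d stably expressed in LTK mouse fibroblasts (G418 selection, SV40 early promoter); rat submaxillary gland membranes for pharmacologically defined α-1A.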

For experiment [1], the target named is T2, α-1A adrenoreceptor (rat submaxillary gland) (Rattus norvegicus, UniProt P43140).
T2 sequence (P43140 1-466): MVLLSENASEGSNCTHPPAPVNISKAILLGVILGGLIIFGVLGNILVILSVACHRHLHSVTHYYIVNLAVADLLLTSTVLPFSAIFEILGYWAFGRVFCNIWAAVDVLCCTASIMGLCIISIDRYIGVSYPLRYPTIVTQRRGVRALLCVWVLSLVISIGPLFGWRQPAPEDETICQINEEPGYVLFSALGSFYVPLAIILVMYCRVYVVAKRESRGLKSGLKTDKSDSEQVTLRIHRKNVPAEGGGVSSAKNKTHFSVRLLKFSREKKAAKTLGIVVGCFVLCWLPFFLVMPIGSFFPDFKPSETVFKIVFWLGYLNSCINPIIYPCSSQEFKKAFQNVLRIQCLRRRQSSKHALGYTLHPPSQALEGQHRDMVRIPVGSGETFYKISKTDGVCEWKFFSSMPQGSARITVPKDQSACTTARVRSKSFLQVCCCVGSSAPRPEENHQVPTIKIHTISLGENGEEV
The class given is binding. To be noted: [3H]-prazosin radioligand; rat submaxillary gland membranes; read-out: Radioligand Binding (Ki, nM) 1A (Rat). In a few lines: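 Membranes were prepared from rat submaxillary glands as the α-1A adrenoreceptor source. Competition binding followed Greengrass and Bremner, with bound radioligand measured by scintillation counting.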

Another experiment addresses T3, α-1b adrenoreceptor (Mesocricetus auratus, UniProt P18841).
T3 sequence (P18841 1-515): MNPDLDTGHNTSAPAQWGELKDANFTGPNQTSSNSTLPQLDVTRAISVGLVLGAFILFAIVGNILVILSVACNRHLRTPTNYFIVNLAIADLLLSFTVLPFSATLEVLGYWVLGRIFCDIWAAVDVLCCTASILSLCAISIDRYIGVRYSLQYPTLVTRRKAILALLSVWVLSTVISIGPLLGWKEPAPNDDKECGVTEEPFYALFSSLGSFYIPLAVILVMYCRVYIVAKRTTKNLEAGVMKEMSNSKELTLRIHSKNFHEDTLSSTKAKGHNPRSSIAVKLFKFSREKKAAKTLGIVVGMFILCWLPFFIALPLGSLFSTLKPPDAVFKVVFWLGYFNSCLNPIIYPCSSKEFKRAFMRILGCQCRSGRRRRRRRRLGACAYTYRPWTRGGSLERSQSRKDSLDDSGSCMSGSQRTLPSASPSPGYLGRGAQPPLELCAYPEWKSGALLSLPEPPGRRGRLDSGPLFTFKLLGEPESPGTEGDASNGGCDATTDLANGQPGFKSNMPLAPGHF
The class given is binding, hamster. To be noted: [3H]-prazosin radioligand; cloned receptor in LTK cell membranes; read-out: Radioligand Binding (Ki, nM) 1b (Hamster). In a few lines: as §1

The next experiment concerns the target T4, α-1d adrenoreceptor (Rattus norvegicus, UniProt P23944).
T4 sequence (P23944 1-561): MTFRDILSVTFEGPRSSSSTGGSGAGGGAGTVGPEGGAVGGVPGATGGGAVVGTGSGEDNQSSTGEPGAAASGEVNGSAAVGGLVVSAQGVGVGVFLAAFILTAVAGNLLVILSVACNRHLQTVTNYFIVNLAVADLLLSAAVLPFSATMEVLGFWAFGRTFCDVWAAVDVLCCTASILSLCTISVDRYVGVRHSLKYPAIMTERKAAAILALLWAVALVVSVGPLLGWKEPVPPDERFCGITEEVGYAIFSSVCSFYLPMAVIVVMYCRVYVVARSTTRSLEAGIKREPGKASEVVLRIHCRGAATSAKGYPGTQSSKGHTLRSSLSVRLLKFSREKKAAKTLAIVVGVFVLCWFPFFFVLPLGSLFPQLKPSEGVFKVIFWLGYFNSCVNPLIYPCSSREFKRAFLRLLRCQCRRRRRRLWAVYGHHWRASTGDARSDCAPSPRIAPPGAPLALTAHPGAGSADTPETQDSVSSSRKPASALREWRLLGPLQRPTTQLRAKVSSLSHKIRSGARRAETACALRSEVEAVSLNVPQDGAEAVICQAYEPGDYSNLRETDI
It counts as binding. To be noted: [3H]-prazosin radioligand; cloned receptor in LTK cell membranes; read-out: Radioligand Binding (Ki, nM) 1d (Rat). In a few lines:
as §1

With `COc1cccc2c1[C@@H]1CN(CCCCn3c(=O)[nH]c4c(sc5nccnc54)c3=O)C[C@@H]1CO2` [Example 15, 3-[4-((3aR,9bR)-cis-9-Methoxy-1,2,3,3a,4,9b-hexahydro-[1]-benzopyrano[3,4-c]pyrrol-2-yl)butyl]-pyrazino[2',3':4,5]thieno[3,2-d]pyrimidine-2,4(1H,3H)-dione dihydrochloride], the inhibition constant Ki at α-1a adrenoreceptor was 0.068 nM; in experiment [1], 0.227 nM; on α-1b adrenoreceptor, 4.41 nM; at α-1d adrenoreceptor, 0.928 nM.
As for `COc1cccc2c1[C@@H]1CN(CCCCn3c(=O)[nH]c4c(sc5ncc(Cl)nc54)c3=O)C[C@@H]1CO2` [Example 16, 3-[4-((3aR,9bR)-cis-9-Methoxy-1,2,3,3a,4,9b-hexahydro-[1]-benzopyrano[3,4-c]pyrrol-2-yl)butyl]-8-chloro-pyrazino[2',3':4,5]thieno[3,2-d]pyrimidine-2,4(1H,3H)-dione hydrochloride], the inhibition constant (Ki) on α-1a adrenoreceptor came to 0.073 nM; in experiment [1], 0.373 nM; at α-1b adrenoreceptor it was 8.64 nM; at α-1d adrenoreceptor, 0.729 nM.
The matching figures for `COc1cccc2c1[C@@H]1CN(CCCCn3c(=O)[nH]c4c(sc5c(Cl)ccnc54)c3=O)C[C@H]1CO2` [Example 19, 3-[4-((3aS,9bR)-trans-9-Methoxy-1,2,3,3a,4,9b-hexahydro-[1]-benzopyrano[3,4-c]pyrrol-2-yl)butyl]-6-chloro-pyrido[2',3':4,5]thieno[3,2-d]pyrimidine-2,4(1H,3H)-dione hydrochloride]: 0.025 nM, 0.059 nM, 1.13 nM and 0.108 nM.
Regarding `COc1cccc2c1[C@@H]1CN(CCCCn3c(=O)[nH]c4c(sc5c(Cl)ccnc54)c3=O)C[C@@H]1CO2` [Example 20, 3-[4-((3aR,9bR-cis-9-Methoxy-1,2,3,3a,4,9b-hexahydro-[1]-benzopyrano[3,4-c]pyrrol-2-yl)butyl]-6-chloro-pyrido[2',3':4,5]thieno[3,2-d]pyrimidine-2,4(1H,3H)-dione hydrochloride], the Ki on α-1a adrenoreceptor was 0.038 nM; in experiment [1] it was 0.208 nM; on α-1b adrenoreceptor, 3.5 nM; on α-1d adrenoreceptor it was 0.439 nM.
As for `COc1cccc2c1[C@@H]1CN(CCCCn3c(=O)[nH]c4c(sc5ccccc54)c3=O)C[C@H]1CO2` [Example 21, 3-[4-((3aS,9bR)-trans-9-Methoxy-1,2,3,3a,4,9b-hexahydro-[1]-benzopyrano[3,4-c]pyrrol-2-yl)butyl]-[1]benzthieno[3,2-d]pyrimidine-2,4(1H,3H)-dione hydrochloride], the inhibitory constant (Ki) stood at 0.018 nM at α-1a adrenoreceptor, 0.03 nM in experiment [1], 0.326 nM on α-1b adrenoreceptor and 0.03 nM at α-1d adrenoreceptor.
On to `COc1cccc2c1[C@@H]1CN(CCCCn3c(=O)[nH]c4c(sc5ccccc54)c3=O)C[C@@H]1CO2` [Example 22, 3-[4-((3aR,9bR)-cis-9-Methoxy-1,2,3,3a,4,9b-hexahydro-[1]-benzopyrano[3,4-c]pyrrol-2-yl)butyl]-[1]benzthieno[3,2-d]pyrimidine-2,4(1H,3H)-dione hydrochloride], for which the Ki on α-1a adrenoreceptor is 0.031 nM; in experiment [1], 0.196 nM; at α-1b adrenoreceptor, 1.16 nM; at α-1d adrenoreceptor it was 0.138 nM.
On to `COc1cccc2c1[C@@H]1CN(CCCCCn3c(=O)[nH]c4c(sc5ccccc54)c3=O)C[C@H]1CO2` [Example 23, 3-[5-((3aS,9bR)-trans-9-Methoxy-1,2,3,3a,4,9b-hexahydro-[1]-benzopyrano[3,4-c]pyrrol-2-yl)pentyl]-[1]benzthieno[3,2-d]pyrimidine-2,4(1H,3H)-dione hydrochloride], for which the Ki on α-1a adrenoreceptor is 0.046 nM; in experiment [1] it was 0.743 nM; at α-1b adrenoreceptor it was 0.973 nM; on α-1d adrenoreceptor, 0.639 nM.
The matching figures for `COc1cccc2c1[C@@H]1CN(CCCCCn3c(=O)[nH]c4c(sc5ccccc54)c3=O)C[C@@H]1CO2` [Example 24, 3-[5-((3aR,9bR)-cis-9-Methoxy-1,2,3,3a,4,9b-hexahydro-[1]-benzopyrano[3,4-c]pyrrol-2-yl)pentyl]-[1]benzthieno[3,2-d]pyrimidine-2,4(1H,3H)-dione hydrochloride]: 0.616 nM, 5.37 nM, 5.56 nM and 4.51 nM.
On to `COc1cnc2c(c1)sc1c(=O)n(CCCCN3C[C@H]4COc5cccc(OC)c5[C@@H]4C3)c(=O)[nH]c12` [Example 27, 3-[4-((3aS,9bR)-trans-9-Methoxy-1,2,3,3a,4,9b-hexahydro-[1]-benzopyrano[3,4-c]pyrrol-2-yl)butyl]-7-methoxy-pyrido[2',3':4,5]thieno[3,2-d]pyrimidine-2,4(1H,3H)-dione hydrochloride], for which the Ki on α-1a adrenoreceptor amounted to 0.044 nM; in experiment [1], 0.121 nM; on α-1b adrenoreceptor it was 0.974 nM; on α-1d adrenoreceptor it was 0.094 nM.
For `COc1cccc2c1[C@@H]1CN(CCCCn3c(=O)[nH]c4c(sc5ccc(-c6ccccc6)nc54)c3=O)C[C@H]1CO2` [Example 52, 3-[4-((3aS,9bR)-trans-9-Methoxy-1,2,3,3a,4,9b-hexahydro-[1]-benzopyrano[3,4-c]pyrrol-2-yl)butyl]-8-phenyl-pyrido[2',3':4,5]thieno[3,2-d]pyrimidine-2,4(1H,3H)-dione dihydrochloride], the Ki at α-1a adrenoreceptor is 1.08 nM; in experiment [1], 3.98 nM; on α-1b adrenoreceptor, 13.6 nM; at α-1d adrenoreceptor, 0.597 nM.
Regarding `COc1cnc2sc3c(=O)n(CCCCN4C[C@H]5COc6cccc(OC)c6[C@@H]5C4)c(=O)[nH]c3c2c1` [Example 55, 3-[4-((3aS,9bR)-trans-9-Methoxy-1,2,3,3a,4,9b-hexahydro-[1]-benzopyrano[3,4-c]pyrrol-2-yl)butyl]-8-methoxy-pyrido[3',2':4,5]thieno[3,2-d]pyrimidine-2,4(1H,3H)-dione hydrochloride], the inhibition constant Ki was determined as 0.103 nM on α-1a adrenoreceptor, 0.111 nM in experiment [1], 1.46 nM at α-1b adrenoreceptor and 0.02 nM at α-1d adrenoreceptor.
For `COc1cccc2c1[C@@H]1CN(CCCCn3c(=O)[nH]c4c(sc5ccc(-c6cccnc6)nc54)c3=O)C[C@@H]1CO2` [Example 56, 3-[4-((3aR,9bR)-cis-9-Methoxy-1,2,3,3a,4,9b-hexahydro-[1]-benzopyrano[3,4-c]pyrrol-2-yl)butyl]-8-(3-pyridyl)-pyrido[2',3';4,5]thieno[3,2-d]pyrimidine-2,4(1H,3H)-dione dihydrochloride] the same measures were 0.078 nM, 0.614 nM, 10.2 nM and 1.31 nM.
